The text below walks through data of patent publication US20100016376A1, “CASPASE INHIBITORS BASED ON PYRIDONE SCAFFOLD” (LG Life Sciences Ltd., priority 2006, published 2010).

For one test, the target named is T1, caspase-8 (Homo sapiens, UniProt Q14790).
T1 construct: p10 and p20 subunits (Thornberry, N. A. et al, Nature, 1992, 356, 768) were expressed in E. coli; made in house; host or cells: E. coli
As to the kind of experiment: Assay for the caspase inhibitory effect (fluorescent substrate AcDEVD-AFC). In kind it is biochemical. The settings on record: pH 7.5; 2.1 nM caspase-8, 50 μM AcDEVD-AFC, 25° C., pH 7.50; read-out: Caspase-8 Kobs/[I] (converted). Here is the method:
Caspase-1 and caspase-8 known as cysteine proteases in the form of α2β2 were expressed, purified, and activated by modifying a method known in Thornberry, N. A. et al, Nature, 1992, 356, 768; Thornberry, N. A. Methods in Enzymology, 1994, 244, 615; Walker, N. P. C. et al. Cell, 1994, 78, 343, and caspase-9 was also purified by a similar method, and the inhibitory activity against them was tested. Briefly describing, p10 and p20 subunits (Thornberry, N. A. et al, Nature, 1992, 356, 768) were expressed in E. coli and purified by nickel column and anionic exchange chromatography to give caspase-1, caspase-8 and caspase-9. The fluorescent substrates AcYVAD-AFC for thus obtained caspase-1, AcDEVD-AFC for caspase-8, and AcLEHD-AFC for caspase-9, were used for determining specific activity of the synthesized inhibitors. The enzyme reaction was carried cut at 25° C. with various concentrations of the inhibitors in a buffer solution containing 50 mM HEPES(pH 7.50), 10% (w/v) sucrose, 0.1% (w/v) CHAPS, 100 mM NaCl, 1 mM EDTA, and 10 mM DTT in the presence of 50 μM AcYVAD-AFC for 10 nM caspase-1, 50 μM AcDEVD-AFC for 2.1 nM caspase-8, and 150 μM AcLEHD-AFC for 200 nM caspase-9. The inhibitory constants Ki and Kobs of the inhibitors were determined by measuring the reaction velocity with the time lapse using a fluorescent spectrometer and by obtaining the initial rate constant. Ki was calculated from the Lineweaver Burk Plot, and Kobs from the following Equation 1.
Kobs=−ln (1−At/Aoo)/t [Equation 1]
At means cleavage rate (%) at time t, and
Aoo means the maximum cleavage rate (%).
Spectra MAX GeminiXS Fluorescent Spectrometer of Molecular Device Co. W is used at the excitation wavelength of 405 nm and the emission wavelength of 505 nm.

Test [1] relates to Jurkat cell (ATCC TIB-152). As to the kind of experiment: Jurkat cell apoptosis induced by Fas antibody, WST-1 method. In kind it is cell-based. Particulars: Homo sapiens, amount of alive Jurkat cells by WST-1. As for the experimental part:
The […] inhibitory activity of the inhibitors was determined by subjecting Jurkat cell (ATCC TIB-152) to apoptosis using Fas antibody (Upstate Biotech 05-201) and by detecting the color change according to the WST-1 method known in Francoeur A. M. and Assalian A. (1996) Biochemica 3, 19-25 to observe the amount of alive Jurkat cells when the cells were treated by the inhibitor. Spectra MAX 340 Spectrometer of Molecular Device Co. was used at the absorbance wavelength of 440 nm.
In general terms: Tetrazolium dyes change colour on reduction, which living cells bring about.

pIC50: −log10 of the molar value.

T1 sequence (Q14790 217-374 limits assumed, species assumed): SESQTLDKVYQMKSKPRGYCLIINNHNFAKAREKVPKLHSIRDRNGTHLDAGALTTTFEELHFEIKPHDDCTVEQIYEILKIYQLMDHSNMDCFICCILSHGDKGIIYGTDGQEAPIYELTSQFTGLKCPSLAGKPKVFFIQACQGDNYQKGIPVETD
T1 sequence (Q14790 385-479 limits assumed, species assumed): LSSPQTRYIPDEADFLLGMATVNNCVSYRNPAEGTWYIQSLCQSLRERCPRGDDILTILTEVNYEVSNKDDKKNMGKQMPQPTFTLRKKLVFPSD

In the case of `CCC(C(=O)NC(CC(=O)O)C(=O)CF)c1c(C)ccn(-c2ccccc2)c1=O` (stereo not drawn) [Example 1, 5-Fluoro-3-[2-(4-methyl-2-oxo-1-phenyl-1,2-dihydro-pyridin-3-yl)-butyrylamino]-4-oxo-pentanoic acid], the kinact/KI at caspase-8 was 467 M⁻¹ s⁻¹. Moreover, the pIC50 (in general, −log10 of the IC50, conventionally taken in molar units) in test [1] was 5.31.
`CCC(C(=O)NC(CC(=O)O)C(=O)CF)c1c(C)ccn(Cc2ccccc2)c1=O` (stereo not drawn) [Example 2, 3-[2-(1-Benzyl-4-methyl-2-oxo-1,2-dihydro-pyridin-3-yl)-butyrylamino]-5-fluoro-4-oxo-pentanoic acid]: the kinact/KI on caspase-8 is 1830 M⁻¹ s⁻¹. The compound further gave a pIC50 in test [1] of 5.61.
The matching figures for `CCC(C(=O)NC(CC(=O)O)C(=O)CF)c1c(C)ccn(CC(C)C)c1=O` (stereo not drawn) [Example 4, 5-Fluoro-3-[2-(1-isobutyl-4-methyl-2-oxo-1,2-dihydro-pyridin-3-yl)-butyrylamino]-4-oxo-pentanoic acid]: 733 M⁻¹ s⁻¹ and 6.41.
On the same counts, the results for `CC(C)C(C(=O)NC(CC(=O)O)C(=O)CF)c1cccn(Cc2ccccc2)c1=O` (stereo not drawn) [Example 6, 3-[2-(1-Benzyl-2-oxo-1,2-dihydro-pyridin-3-yl)-3-methyl-butyrylamino]-5-fluoro-4-oxo-pentanoic acid] are 3500 M⁻¹ s⁻¹ and 5.67.
Take `CCCC(C(=O)NC(CC(=O)O)C(=O)CF)c1cccn(Cc2ccccc2)c1=O` (stereo not drawn) [Example 7, 3-[2-(1-Benzyl-2-oxo-1,2-dihydro-pyridin-3-yl)-pentanoylamino]-5-fluoro-4-oxo-pentanoic acid]: on caspase-8, the kinact/KI is 6670 M⁻¹ s⁻¹. The pIC50 in test [1] is 6.19.
On the same counts, the results for `CCC(C(=O)NC(CC(=O)O)C(=O)CF)c1cccn(Cc2ccccc2)c1=O` (stereo not drawn) [Example 5, 3-[2-(1-Benzyl-2-oxo-1,2-dihydro-pyridin-3-yl)-butyrylamino]-5-fluoro-4-oxo-pentanoic acid] are 16700 M⁻¹ s⁻¹ and 6.09.
On the same counts, the results for `CCC(C(=O)NC(CC(=O)O)C(=O)CF)c1cccn(Cc2ccccc2C(C)(C)C)c1=O` (stereo not drawn) [Example 8, 3-{2-[1-(2-tert-Butyl-benzyl)-2-oxo-1,2-dihydro-pyridin-3-yl]-butyrylamino}-5-fluoro-4-oxo-pentanoic acid] are 33300 M⁻¹ s⁻¹ and 6.74.
As to `CCC(C(=O)NC(CC(=O)O)C(=O)CF)c1c(C)ccn(CCc2ccccc2)c1=O` (stereo not drawn) [Example 3, 5-Fluoro-3-[2-(4-methyl-2-oxo-1-phenethyl-1,2-dihydro-pyridin-3-yl)-butyrylamino]-4-oxo-pentanoic acid], the kinact/KI on caspase-8 is 750 M⁻¹ s⁻¹.
